Legend:
[1] = molecular target: T1, Dual specificity mitogen-activated protein kinase kinase 6 (Homo sapiens) (UniProt P52564); assay: Inhibition of MEK6 (unknown origin) at 1 uM by Ambit Kinomescan binding assay relative to control; values are per cent of control
T1 sequence (whole entry): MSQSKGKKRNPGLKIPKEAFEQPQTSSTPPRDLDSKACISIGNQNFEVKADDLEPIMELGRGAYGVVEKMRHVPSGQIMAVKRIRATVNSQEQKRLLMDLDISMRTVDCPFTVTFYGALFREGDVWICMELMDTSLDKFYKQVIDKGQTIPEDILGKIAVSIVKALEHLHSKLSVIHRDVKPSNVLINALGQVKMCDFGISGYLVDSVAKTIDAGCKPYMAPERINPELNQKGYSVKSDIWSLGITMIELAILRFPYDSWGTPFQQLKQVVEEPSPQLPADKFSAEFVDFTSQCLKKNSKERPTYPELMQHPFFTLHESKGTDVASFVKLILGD

[2] = molecular target: Glycogen synthase kinase-3 beta (Homo sapiens) (UniProt P49841); assay: Inhibition of GSK3B (unknown origin) at 1 uM by Ambit Kinomescan binding assay relative to control; values are per cent of control
[3] = molecular target: STE20-like serine/threonine-protein kinase (Homo sapiens) (UniProt Q9H2G2); assay: Inhibition of SLK K1 labeling site in human Huh-7 cells at 1 uM by KiNativ Profiling analysis relative to control; format: cell-based
[4] = molecular target: T2, Dual specificity mitogen-activated protein kinase kinase 4 (Homo sapiens) (UniProt P45985); assay: Inhibition of MAP2K4 K2 labeling site harbouring DIKPSNILLDR in human Huh-7 cells at 10 uM by KiNativ Profiling analysis relative to control; format: cell-based
T2 sequence (whole entry): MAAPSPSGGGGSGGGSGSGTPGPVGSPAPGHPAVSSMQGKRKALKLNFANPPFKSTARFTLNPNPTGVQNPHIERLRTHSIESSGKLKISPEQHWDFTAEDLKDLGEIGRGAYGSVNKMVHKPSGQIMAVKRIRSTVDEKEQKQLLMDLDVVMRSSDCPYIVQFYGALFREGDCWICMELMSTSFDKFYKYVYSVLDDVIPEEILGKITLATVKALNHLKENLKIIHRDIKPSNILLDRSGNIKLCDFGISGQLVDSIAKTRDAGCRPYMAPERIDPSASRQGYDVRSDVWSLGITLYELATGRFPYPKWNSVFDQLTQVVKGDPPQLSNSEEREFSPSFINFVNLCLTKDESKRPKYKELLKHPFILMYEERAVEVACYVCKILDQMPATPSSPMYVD

[5] = molecular target: Serine/threonine-protein kinase 38-like (Homo sapiens) (UniProt Q9Y2H1); assay: Inhibition of NDR2 Lys1 labeling site harbouring DTGHIYAMKILR in human A-375 cells at 0.5 uM by KiNativ Profiling analysis relative to control; format: cell-based
[6] = molecular target: Hepatocyte growth factor receptor (Homo sapiens) (UniProt P08581); assay: Inhibition of MET ACT labeling site in human Huh-7 cells at 1 uM by KiNativ Profiling analysis relative to control; format: cell-based
[7] = molecular target: MAP/microtubule affinity-regulating kinase 3 (Homo sapiens) (UniProt P27448); assay: Inhibition of MARK3 K1 labeling site in human Huh-7 cells at 10 uM by KiNativ Profiling analysis relative to control; format: cell-based
[8] = molecular target: Macrophage colony-stimulating factor 1 receptor (Homo sapiens) (UniProt P07333); assay: Inhibition of CSF1R (unknown origin) at 10 uM by Ambit Kinomescan binding assay relative to control
[9] = molecular target: Tyrosine-protein kinase JAK2 (Homo sapiens) (UniProt O60674); assay: Inhibition of JAK2 JH1 catalytic domain (unknown origin) at 10 uM by Ambit Kinomescan binding assay relative to control
[10] = molecular target: T3, Serine/threonine-protein kinase greatwall (Homo sapiens) (UniProt Q96GX5); assay: Inhibition of MASTL Lys2 labeling site in human Huh-7 cell lysate at 1 uM by KiNativ Profiling analysis relative to control; format: subcellular
T3 sequence (whole entry): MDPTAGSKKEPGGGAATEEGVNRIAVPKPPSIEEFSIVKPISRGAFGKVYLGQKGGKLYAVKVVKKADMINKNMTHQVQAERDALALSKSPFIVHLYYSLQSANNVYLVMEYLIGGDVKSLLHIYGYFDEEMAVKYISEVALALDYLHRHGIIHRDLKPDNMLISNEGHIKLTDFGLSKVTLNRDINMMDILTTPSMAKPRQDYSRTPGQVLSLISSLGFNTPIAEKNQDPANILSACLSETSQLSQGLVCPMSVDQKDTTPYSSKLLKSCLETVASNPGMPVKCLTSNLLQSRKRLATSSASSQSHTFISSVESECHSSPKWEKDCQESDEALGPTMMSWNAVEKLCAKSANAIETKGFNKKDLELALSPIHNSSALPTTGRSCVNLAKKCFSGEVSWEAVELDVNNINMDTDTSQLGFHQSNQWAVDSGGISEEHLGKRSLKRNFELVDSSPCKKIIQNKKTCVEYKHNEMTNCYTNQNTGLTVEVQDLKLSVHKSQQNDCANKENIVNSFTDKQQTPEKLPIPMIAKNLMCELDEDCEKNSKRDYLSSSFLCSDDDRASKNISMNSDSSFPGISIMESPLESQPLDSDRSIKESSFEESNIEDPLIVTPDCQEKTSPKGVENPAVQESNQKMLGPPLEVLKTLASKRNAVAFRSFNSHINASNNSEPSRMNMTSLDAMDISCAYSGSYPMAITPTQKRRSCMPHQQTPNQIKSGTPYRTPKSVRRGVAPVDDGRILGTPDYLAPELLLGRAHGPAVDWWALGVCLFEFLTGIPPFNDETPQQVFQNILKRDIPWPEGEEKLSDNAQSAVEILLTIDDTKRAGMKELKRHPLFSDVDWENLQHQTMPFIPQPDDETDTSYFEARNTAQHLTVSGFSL

[11] = molecular target: T4, Serine/threonine-protein kinase Sgk3 (Homo sapiens) (UniProt Q96BR1); assay: Inhibition of SGK3 Lys1 labeling site in human Huh-7 cell lysate at 1 uM by KiNativ Profiling analysis relative to control; format: subcellular
T4 sequence (whole entry): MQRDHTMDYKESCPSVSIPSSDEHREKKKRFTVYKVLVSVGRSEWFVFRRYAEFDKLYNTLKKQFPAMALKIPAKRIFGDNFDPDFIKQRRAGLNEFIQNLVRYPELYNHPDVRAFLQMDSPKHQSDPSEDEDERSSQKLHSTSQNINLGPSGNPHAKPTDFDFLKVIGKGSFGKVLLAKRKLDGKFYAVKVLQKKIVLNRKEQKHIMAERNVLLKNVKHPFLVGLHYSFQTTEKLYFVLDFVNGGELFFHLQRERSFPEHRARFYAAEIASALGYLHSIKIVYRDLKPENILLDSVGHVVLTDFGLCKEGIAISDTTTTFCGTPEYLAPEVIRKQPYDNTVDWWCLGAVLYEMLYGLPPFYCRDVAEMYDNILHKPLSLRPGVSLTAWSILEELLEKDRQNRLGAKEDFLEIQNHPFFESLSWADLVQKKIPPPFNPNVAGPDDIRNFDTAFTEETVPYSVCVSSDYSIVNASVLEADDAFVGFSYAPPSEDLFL

Chain of Tyrosine-protein kinase JAK2 (Homo sapiens) (O60674 whole entry, the tested form may be a part): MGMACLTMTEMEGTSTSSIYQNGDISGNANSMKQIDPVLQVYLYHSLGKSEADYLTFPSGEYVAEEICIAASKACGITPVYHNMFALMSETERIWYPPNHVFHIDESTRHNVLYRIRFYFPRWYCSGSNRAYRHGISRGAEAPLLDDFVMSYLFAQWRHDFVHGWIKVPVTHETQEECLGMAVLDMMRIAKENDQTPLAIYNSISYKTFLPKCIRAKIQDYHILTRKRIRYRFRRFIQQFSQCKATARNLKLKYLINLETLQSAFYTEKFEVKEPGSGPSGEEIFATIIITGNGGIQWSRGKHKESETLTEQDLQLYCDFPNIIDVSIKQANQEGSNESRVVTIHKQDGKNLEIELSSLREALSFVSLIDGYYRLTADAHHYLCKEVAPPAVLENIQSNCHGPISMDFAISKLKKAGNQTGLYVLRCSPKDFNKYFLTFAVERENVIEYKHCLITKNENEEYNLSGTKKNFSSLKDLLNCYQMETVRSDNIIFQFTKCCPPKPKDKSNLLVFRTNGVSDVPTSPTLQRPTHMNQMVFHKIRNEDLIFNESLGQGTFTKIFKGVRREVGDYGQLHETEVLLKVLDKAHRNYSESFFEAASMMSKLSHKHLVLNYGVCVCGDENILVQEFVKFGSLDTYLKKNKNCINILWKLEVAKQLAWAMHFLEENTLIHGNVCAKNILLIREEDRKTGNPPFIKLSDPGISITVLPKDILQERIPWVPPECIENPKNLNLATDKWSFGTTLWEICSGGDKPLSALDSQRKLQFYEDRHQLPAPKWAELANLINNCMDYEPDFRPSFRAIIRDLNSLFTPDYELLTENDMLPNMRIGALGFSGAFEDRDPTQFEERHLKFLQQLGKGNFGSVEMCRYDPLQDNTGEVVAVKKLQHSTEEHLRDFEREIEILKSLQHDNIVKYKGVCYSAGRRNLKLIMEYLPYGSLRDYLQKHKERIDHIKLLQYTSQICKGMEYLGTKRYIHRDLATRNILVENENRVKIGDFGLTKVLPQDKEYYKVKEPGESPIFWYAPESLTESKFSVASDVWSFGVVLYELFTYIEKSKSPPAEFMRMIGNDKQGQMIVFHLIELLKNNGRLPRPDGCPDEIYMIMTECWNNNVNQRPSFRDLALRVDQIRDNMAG
Chain of Serine/threonine-protein kinase 38-like (Homo sapiens) (Q9Y2H1 2-464 limits assumed): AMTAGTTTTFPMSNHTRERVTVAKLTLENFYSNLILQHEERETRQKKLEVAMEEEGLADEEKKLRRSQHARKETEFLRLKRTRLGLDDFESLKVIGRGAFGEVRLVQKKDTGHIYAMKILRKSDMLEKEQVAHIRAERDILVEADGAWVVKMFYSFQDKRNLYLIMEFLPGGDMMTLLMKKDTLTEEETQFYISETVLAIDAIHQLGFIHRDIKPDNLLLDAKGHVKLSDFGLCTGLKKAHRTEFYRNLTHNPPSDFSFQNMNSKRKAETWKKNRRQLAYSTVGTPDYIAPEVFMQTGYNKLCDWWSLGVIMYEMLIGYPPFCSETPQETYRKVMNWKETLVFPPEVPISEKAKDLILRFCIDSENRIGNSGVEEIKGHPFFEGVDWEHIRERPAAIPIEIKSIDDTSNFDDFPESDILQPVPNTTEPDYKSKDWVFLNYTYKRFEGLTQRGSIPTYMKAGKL
Chain of Glycogen synthase kinase-3 beta (Homo sapiens) (P49841 whole entry, looked up): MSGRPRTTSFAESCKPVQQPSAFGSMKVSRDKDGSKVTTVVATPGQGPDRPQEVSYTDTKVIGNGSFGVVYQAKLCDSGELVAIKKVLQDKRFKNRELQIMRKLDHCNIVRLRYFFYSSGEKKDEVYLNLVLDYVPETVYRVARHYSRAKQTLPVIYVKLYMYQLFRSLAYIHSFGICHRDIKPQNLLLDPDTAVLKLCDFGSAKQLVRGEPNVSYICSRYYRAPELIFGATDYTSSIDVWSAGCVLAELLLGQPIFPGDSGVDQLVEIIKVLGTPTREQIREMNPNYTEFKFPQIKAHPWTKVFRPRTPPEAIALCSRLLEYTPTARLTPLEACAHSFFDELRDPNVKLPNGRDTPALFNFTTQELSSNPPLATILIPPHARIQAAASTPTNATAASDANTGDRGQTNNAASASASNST
Chain of STE20-like serine/threonine-protein kinase (Homo sapiens) (Q9H2G2 whole entry, looked up): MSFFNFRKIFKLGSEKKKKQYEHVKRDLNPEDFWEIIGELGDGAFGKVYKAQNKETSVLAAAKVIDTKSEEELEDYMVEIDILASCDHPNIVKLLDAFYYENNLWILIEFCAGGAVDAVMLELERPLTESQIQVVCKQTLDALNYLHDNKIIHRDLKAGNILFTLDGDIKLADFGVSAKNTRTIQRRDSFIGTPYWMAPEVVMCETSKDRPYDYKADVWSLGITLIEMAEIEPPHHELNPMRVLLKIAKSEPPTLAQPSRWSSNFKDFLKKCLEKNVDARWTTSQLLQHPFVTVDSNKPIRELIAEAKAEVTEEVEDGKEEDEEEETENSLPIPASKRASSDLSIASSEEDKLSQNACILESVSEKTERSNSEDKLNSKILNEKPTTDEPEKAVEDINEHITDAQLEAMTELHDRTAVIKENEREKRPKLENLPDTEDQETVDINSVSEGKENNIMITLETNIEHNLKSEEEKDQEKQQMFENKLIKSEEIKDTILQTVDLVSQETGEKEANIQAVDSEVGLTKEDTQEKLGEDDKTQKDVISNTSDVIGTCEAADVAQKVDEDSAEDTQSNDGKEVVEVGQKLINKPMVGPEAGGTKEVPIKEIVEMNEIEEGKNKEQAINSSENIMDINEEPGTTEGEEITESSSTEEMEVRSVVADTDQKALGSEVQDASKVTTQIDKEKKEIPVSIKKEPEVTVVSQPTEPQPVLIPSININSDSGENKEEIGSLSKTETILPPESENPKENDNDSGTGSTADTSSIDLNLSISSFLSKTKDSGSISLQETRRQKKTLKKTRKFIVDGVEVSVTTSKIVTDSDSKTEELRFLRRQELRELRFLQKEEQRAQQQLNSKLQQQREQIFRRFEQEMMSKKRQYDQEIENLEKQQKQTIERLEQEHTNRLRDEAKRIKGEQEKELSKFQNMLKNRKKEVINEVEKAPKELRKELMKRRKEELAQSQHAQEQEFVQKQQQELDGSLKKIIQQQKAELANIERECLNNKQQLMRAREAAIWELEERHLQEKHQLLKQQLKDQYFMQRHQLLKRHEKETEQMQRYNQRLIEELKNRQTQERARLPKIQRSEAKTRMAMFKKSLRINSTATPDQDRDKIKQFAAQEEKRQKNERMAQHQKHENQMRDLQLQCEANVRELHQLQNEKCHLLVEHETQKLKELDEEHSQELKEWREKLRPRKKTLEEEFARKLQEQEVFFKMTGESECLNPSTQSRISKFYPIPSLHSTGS
Chain of Hepatocyte growth factor receptor (Homo sapiens) (P08581 whole entry): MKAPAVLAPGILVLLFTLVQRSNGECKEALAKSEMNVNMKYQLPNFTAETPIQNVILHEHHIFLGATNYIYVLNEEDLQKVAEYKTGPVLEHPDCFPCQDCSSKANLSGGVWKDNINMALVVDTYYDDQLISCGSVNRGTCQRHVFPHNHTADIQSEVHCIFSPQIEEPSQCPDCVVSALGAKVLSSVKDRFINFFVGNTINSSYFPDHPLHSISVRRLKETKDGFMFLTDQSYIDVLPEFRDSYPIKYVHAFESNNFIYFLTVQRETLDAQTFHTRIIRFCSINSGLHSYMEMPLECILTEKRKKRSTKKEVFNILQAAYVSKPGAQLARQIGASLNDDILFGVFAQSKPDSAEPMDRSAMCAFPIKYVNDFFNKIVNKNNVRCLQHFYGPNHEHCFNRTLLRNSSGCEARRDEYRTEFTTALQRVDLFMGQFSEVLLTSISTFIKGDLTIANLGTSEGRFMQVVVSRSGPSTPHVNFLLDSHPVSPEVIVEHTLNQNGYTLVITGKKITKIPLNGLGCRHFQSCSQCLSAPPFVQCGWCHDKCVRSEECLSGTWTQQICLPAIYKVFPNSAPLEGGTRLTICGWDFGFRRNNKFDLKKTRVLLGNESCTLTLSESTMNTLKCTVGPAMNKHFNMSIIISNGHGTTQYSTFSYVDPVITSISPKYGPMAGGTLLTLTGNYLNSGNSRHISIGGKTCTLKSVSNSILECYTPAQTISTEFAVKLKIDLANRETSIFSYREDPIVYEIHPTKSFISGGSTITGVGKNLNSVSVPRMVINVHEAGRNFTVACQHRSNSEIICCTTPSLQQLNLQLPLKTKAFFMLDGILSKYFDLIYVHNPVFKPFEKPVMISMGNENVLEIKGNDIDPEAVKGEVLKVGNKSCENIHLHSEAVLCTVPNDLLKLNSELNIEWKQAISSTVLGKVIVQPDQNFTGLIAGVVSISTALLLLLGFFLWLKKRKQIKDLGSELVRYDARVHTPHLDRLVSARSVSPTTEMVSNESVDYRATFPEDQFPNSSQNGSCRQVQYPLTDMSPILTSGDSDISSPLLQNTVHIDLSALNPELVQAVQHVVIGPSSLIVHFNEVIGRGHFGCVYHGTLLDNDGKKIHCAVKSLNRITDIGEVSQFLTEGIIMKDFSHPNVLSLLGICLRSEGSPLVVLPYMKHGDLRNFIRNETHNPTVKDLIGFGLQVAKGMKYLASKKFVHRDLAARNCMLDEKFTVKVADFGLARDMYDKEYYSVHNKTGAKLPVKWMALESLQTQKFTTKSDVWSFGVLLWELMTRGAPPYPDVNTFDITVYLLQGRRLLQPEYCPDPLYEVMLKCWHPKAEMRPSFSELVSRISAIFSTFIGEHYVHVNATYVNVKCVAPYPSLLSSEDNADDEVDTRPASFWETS

Structure (SMILES): CCN1CCN(Cc2ccc(NC(=O)c3ccc(C)c(/C=C/c4cnc5[nH]ccc5c4OC)c3)cc2C(F)(F)F)CC1
- residual activity [1]: 100%
- residual activity [2]: 100%

Structure (SMILES): CCN1CCN(Cc2ccc(NC(=O)c3ccc(C)c(Oc4ccnc5[nH]ccc45)c3)cc2C(F)(F)F)CC1
- inhibition [3]: 3.5%
- inhibition [4]: -4.6%
- inhibition [5]: 16.9%
- inhibition [6]: 15.5%
- inhibition [7]: -7.2%
- inhibition [8]: 0%
- inhibition [9]: 11%

Structure (SMILES): CNc1cc(Oc2cc(C(=O)Nc3cc(N4CCN(C)CC4)cc(C(F)(F)F)c3)ccc2C)ncn1
- inhibition [10]: 26%
- inhibition [11]: 3.5%
